Our source for the EC50 values is US20240261302A1, “METHODS OF TREATING NEURODEGENERATIVE DISEASES OR CONDITIONS” (FloraScience Inc., priority 2023, published 2024).

Where only a bound is given, the exact number is not on record here.

The subject of test [1] is HT22 cells. Description: Oxytosis/ferroptosis assay with erastin (Table 2). To be noted: Mus musculus, HT-22; erastin as inducer; method not given; read-out: Observed EC50 erastin. Type of test: cell-based.
The test system of test [2] is HT22 cells. Description: Ferroptosis Assay (RSL3-induced cell death, MTT). The settings on record: Mus musculus, HT-22; HT22 cells, 1 hr pretreatment, 50 nM RSL3, 16 hr, MTT; read-out: Observed EC50 RSL3. Type of test: cell-based, mouse. The method, then:
Ferroptosis Assay: HT22 cells were seeded at 3,000 cells/well in 96-well tissue culture plates in DMEM plus 10% FBS and 1% antibiotics. After 24 hr of plating, the cells were pretreated with different concentrations of test compounds or a vehicle control for 1 hr followed by coincubation with 50 nM RSL3 to induce the cell death cascade. After 16 hr of treatment, cell viability was measured by the MTT assay. Optical absorbance was measured at 570 nm on a SpectraMax M5 microplate reader. Samples were analyzed in eight to sixteen wells per independent experiment (n=8-16). Results were presented as the percentage of the controls with vehicle alone.

As usually defined, the EC50 is the concentration needed to bring the measured effect to its halfway point.

Consider `CCc1cc(O)c2c(c1)OC(C)(C)c1ccc(C)cc1-2` [CBN-C2, 3-ethyl-6,6,9-trimethyl-6H-benzo[c]chromen-1-ol], for which the results for the EC50 in the test on HT22 cells [1] and in the test on HT22 cells [2] were 5600 nM and 1800 nM, respectively.
`CCCCc1cc(O)c2c(c1)OC(C)(C)c1ccc(C)cc1-2` [CBN-C4, 3-butyl-6,6,9-trimethyl-6H-benzo[c]chromen-1-ol]: the figures for the EC50 in the test on HT22 cells [1] and with HT22 cells [2] were 2100 nM and 1100 nM, respectively.
Take `CCCCCCc1cc(O)c2c(c1)OC(C)(C)c1ccc(C)cc1-2` [CBN-C6, 3-hexyl-6,6,9-trimethyl-6H-benzo[c]chromen-1-ol]: the EC50 in the test with HT22 cells [1] worked out at 2000 nM; in the test on HT22 cells [2], 900 nM.
`CCCCCCCc1cc(O)c2c(c1)OC(C)(C)c1ccc(C)cc1-2` [CBN-C7, 3-heptyl-6,6,9-trimethyl-6H-benzo[c]chromen-1-ol]: the results for the EC50 in the test on HT22 cells [1] and in the test on HT22 cells [2] were 3800 nM and 2000 nM, respectively.
Consider `CCCCCc1cc(OC(C)=O)c2c(c1)OC(C)(C)c1ccc(C)cc1-2` [CBN-OAc, 1-acetoxy-6,6,9-trimethyl-3-pentyl-benzo[c]chromene], for which the EC50 in the test with HT22 cells [1] worked out at 1900 nM; in the test with HT22 cells [2], 1300 nM.
As for `CCCCCc1cc(OC)c2c(c1)OC(C)(C)c1ccc(C)cc1-2` [CBN-OMe, 1-methoxy-6,6,9-trimethyl-3-pentyl-benzo[c]chromene], the EC50 with HT22 cells [1] and in the test on HT22 cells [2] was more than 10000 nM each time.
Regarding `CCCCCc1cc2c(c(O)c1C(=O)O)-c1cc(C)ccc1C(C)(C)O2` [CBNA, 1-hydroxy-6,6,9-trimethyl-3-pentyl-benzo[c]chromene-2-carboxylic acid], the EC50 in the test with HT22 cells [1] and in the test with HT22 cells [2] was more than 10000 nM each time.
With `C=C(C)c1ccc(C)cc1-c1c(O)cc(CCCCC)cc1O` [CBND, 2,6-dihydroxy-4-pentyl-2′-isopropenyl-5′-methyl-1,1′-biphenyl], the EC50 in the test with HT22 cells [1] was found to be 15400 nM; with HT22 cells [2] it was 7700 nM.
`CCCc1cc(OC(C)=O)c2c(c1)OC(C)(C)c1ccc(C)cc1-2` [CBNV-OAc, 6,6,9-trimethyl-3-propyl-6H-benzo[c]chromen-1-yl acetate]: the EC50 with HT22 cells [1] turned out to be 4000 nM; in the test with HT22 cells [2], 1600 nM.
For `CCCCCc1cc2c3c(c1)OC(C)(C)C1CCC(C)(CC31)O2` (centres unmarked) [CBT, 1,5,5-trimethyl-9-pentyl-6,15-dioxa-tetracyclo[9.3.1.0^4,13.0^7,12]-pentadeca-7(12),8,10-triene], in that order: more than 10000 nM and more than 10000 nM.
Turning to `CCCCCc1cc(O)c2c(c1)OC1(C)CCC(=C(C)C)C2C1` (centres unmarked) [D4(8)-iso-THC, 3,4,5,6-tetrahydro-2-methyl-5-(1-methylethylidene)-9-pentyl-2,6-methano-2H-1-benzoxocin-7-ol], the EC50 in the test on HT22 cells [1] is 1500 nM; in the test with HT22 cells [2], 340 nM.
For the molecule `CCCCCc1cc(O)c2c(c1)OC(C)(C)C1=C2CC(C)CC1` (centres unmarked) [D6a,10a-THC, 6,6,9-trimethyl-3-pentyl-7,8,9,10-tetrahydro-6H-benzo[c]chromen-1-ol], the EC50 in the test on HT22 cells [1] was 1800 nM; in the test with HT22 cells [2] it was 700 nM.
As to `C=C(C)C1CCC2(C)CC1c1c(O)cc(CCCCC)cc1O2` (centres unmarked) [D8(9)-iso-THC, 3,4,5,6-tetrahydro-2-methyl-5-(1-methylethenyl)-9-pentyl-2,6-methano-2H-1-benzoxocin-7-ol], the figures for the EC50 with HT22 cells [1] and in the test on HT22 cells [2] were 2100 nM and 330 nM, respectively.
As to `CCCCCc1cc(O)c2c(c1)O[C@@H]1CCC(C)=C[C@]21C(C)C` [D8(9)-iso-THCBF, (5aR,9aR)-9a-isopropyl-8-methyl-3-pentyl-5a,6,7,9a-tetra-hydrodibenzo[b,d]furan-1-ol], the EC50 with HT22 cells [1] amounted to 5100 nM; with HT22 cells [2] it was 1400 nM.
Turning to `CCCCCc1cc(O)c2c(c1)OC(C)(C)C1CC=C(C)CC21` (centres unmarked) [D8-THC, 6,6,9-trimethyl-3-pentyl-6a,7,10,10a-tetrahydro-6H-benzo[c]chromen-1-ol], the EC50 was 2600 nM in the test with HT22 cells [1] and 800 nM in the test on HT22 cells [2].
`CCCCCc1cc(O)c2c(c1)OC(C)(C)C1CCC(C)=CC21` (centres unmarked) [D9-THC, 6,6,9-trimethyl-3-pentyl-6a,7,8,10a-tetrahydro-6H-benzo[c]chromen-1-ol]: the EC50 with HT22 cells [1] amounted to 9400 nM; with HT22 cells [2], 4100 nM.
